The text below walks through data of patent publication US8735387B2, “Oxazolopyrimidines as Edg-1 receptor agonists” (Sanofi, priority 2008, dated 2014).

One test deals with T1, human Edg-1 receptor (Homo sapiens, UniProt P21453).
T1 construct: expressed in transfected cells; membrane preparation
T1 sequence (P21453 whole entry): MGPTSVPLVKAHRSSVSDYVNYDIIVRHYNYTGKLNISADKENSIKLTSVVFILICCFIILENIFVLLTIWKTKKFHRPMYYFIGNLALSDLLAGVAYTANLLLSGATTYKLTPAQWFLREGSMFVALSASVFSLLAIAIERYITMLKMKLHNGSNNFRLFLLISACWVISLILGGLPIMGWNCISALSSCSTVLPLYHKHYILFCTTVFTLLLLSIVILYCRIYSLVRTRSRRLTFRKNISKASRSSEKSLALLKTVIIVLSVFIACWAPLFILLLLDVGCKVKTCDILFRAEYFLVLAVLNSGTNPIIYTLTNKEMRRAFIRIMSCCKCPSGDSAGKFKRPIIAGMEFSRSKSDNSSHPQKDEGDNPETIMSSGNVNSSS
Kind of test: GTP-γ-S assay using human Edg-1 receptors (scintillation proximity assay, membrane preparation from CHO Flp-In cell line). It counts as biochemical. The settings on record: example compound at 10 μM; relative to 10 μM S1P; GTP-γ-S SPA, human Edg-1 membranes. An excerpt: Determination of the Pharmacological Activity A) GTP-γ-S Assay Using Human Edg-1 Receptors
In order to determine the Edg-1 receptor activation by the compounds of the invention, a GTP-γ-S (guanosine 5′-[γ-thio]triphosphate) assay for G-protein coupled receptor binding based on the scintillation proximity assay principle was used, employing a cell membrane preparation from a CHO Flp-In cell line which constitutively overexpresses the human Edg-1 receptor.
The Flp-In™ expression system (Invitrogen, cat. no. K6010-01) allows the generation of stable mammalian cell lines into which the gene of interest has been integrated through homologous recombination at a specific genomic location called Flp Recombination Target (FRT) site by means of a Flp recombinase encoded by the pOG44 expression plasmid. The integration of the pcDNA5/FRT expression construct into the Flp-In host cell line genome results in the transcription of the gene of interest. The stably transfected cells become hygromycin-resistant.
One day prior to transfection, 200 000 Flp-In-CHO cells were seeded in Ham F-12 medium (Invitrogen, cat. no. 31765) supplemented with 10% fetal calf serum (FCS; Perbio Science, cat. no. SH30068.03) in a 6-well plate and incubated at 37° C./5% CO2 overnight. Using the FuGENE® 6 transfection reagent (Roche, cat. no. 11988387001), cells were cotransfected with the Flp recombinase expression plasmid pOG44 and a modified plasmid additionally containing the edg-1 gene (accession no. NM_001400) termed as pcDNA5-FRT-TO_nFLAG_DEST-EDG-1 with a 9:1 ratio. To obtain the modified pcDNA5-FRT-TO_nFLAG_DEST plasmid, the Invitrogen plasmid pcDNA5/FRT/TO (Invitrogen, cat. no. V6520-20) was adapted to the Gateway® (Invitrogen) cloning system by inserting a Gateway cassette containing attR recombination sites flanking a ccdB gene and a chloramphenicol-resistance gene (Gateway conversion system, Invitrogen, cat. no. 11828-029). In addition a FLAG tag epitope was added before the 5′ att recombination site to allow recombinant expression of N-terminally FLAG-tagged proteins.
For the transfection of one well, 1.08 μg of pOG44 and 0.12 μg of pcDNA5-FRT-TO_nFLAG_DEST-EDG-1 were mixed to 100 μl of serum-free Ham F-12 medium containing 6 μl of FuGENE® 6 transfection reagent. After 20 min of incubation, the transfection reagent/DNA complex was distributed dropwise on the cells. The cells were incubated for 24 h at 37° C. Then the cells from 3 wells each were transferred to a T75 flask (Greiner Cellstar®, cat. no. 658175) containing Ham F-12 medium supplemented with 10% of FCS but without antibiotic and were incubated another 24 h. 48 h after transfection, the medium was replaced by selection medium (Ham F-12 supplemented with 10% of FCS and 300 μg/ml of hygromycin B (Invitrogen, cat. no. 10687-010)). The medium was exchanged every 2 to 3 days until a resistant population of cells had grown. […] After 2 weeks of selection, the cells were transferred into T175 flasks (Greiner Cellstar®, cat. no. 660175) and cultivated for batch production. Cells were harvested from the culture flasks by short treatment (2 to 5 min) with Accutase (PAA, cat. no. L11-007), resuspended in selection medium (see above) and centrifuged at 200×g for 5 min. Cells were resuspended in a mixture of 90% of FCS and 10% of dimethylsulfoxide and stored frozen in liquid nitrogen.
A membrane preparation was obtained by standard methods from the afore-described CHO Flp-In cell line constitutively overexpressing the human Edg-1 receptor. Briefly, the cryopreserved cells were taken in culture and grown until confluency in T175 cell culture flasks (Becton Dickinson, cat. no. 35 5001). […]
On the technique in general: In a scintillation proximity assay essentially only radioactivity close to the scintillant gives light.
For the compound `CCCOc1nc(Cc2ccc(Cl)cc2)nc2oc(-c3ccc(OC)nc3)nc12` [Example 151], the “% Activation (Edg-1 receptor activation in percent of the activation by 10 μM S1P)” value stood at 26%.

As for `CCCOc1nc(CN2CCC(F)(F)CC2)nc2oc(-c3cccc(OC)c3)nc12` [Example 36], the “% Activation (Edg-1 receptor activation in percent of the activation by 10 μM S1P)” value is 127%. As for `CCCOc1nc(Cc2ccc(Cl)cc2)nc2oc(-c3cc(C)c(OCC(=O)NCCO)c(C)c3)nc12` [Example 244], the “% Activation (Edg-1 receptor activation in percent of the activation by 10 μM S1P)” value is 97%.

For the compound `CCCOc1nc(Cc2ccccc2)nc2oc(-c3cccc(O)c3)nc12` [Example 215], the “% Activation (Edg-1 receptor activation in percent of the activation by 10 μM S1P)” value came to 96%.

With `CCOc1nc(Cc2ccc(Cl)cc2)nc2oc(-c3cc(C)c(OCC(O)CNC4CCN(CC(C)C)CC4)c(C)c3)nc12` (stereo not shown) [Example 262], the “% Activation (Edg-1 receptor activation in percent of the activation by 10 μM S1P)” value came to 43%. On the same count and under the same terms, the value for `CCCOc1nc(CN2CCCC2(F)F)nc2oc(-c3cccc(F)c3)nc12` [Example 95] was 105%; that for `CCCOc1nc(CN2CCCOCC2)nc2oc(-c3cc(F)cc(F)c3)nc12` [Example 26] was 123%; that for `Fc1cccc(-c2nc3c(OCC4CC4)nc(Cc4ccc(Cl)cc4)nc3o2)c1` [Example 104] was 87%. Same read-out and setting: the value for `CCCOc1nc(CN2CCCC2COC)nc2oc(-c3cccc(F)c3)nc12` (stereo not shown) [Example 140] was 92%; that for `Cc1cccc(-c2nc3c(OCCC(C)C)nc(Cc4ccc(Cl)cc4)nc3o2)c1` [Example 106] was 22%. On the same count and under the same terms, the value for `CCCOc1nc(Cc2ccc(Cl)cc2)nc2oc(-c3cc(C)c(OCCCN[C@@H](CCSC)C(=O)OC)c(C)c3)nc12` [Example 229] was 70%; that for `CCCOc1nc(Cc2ccc(Cl)cc2)nc2oc(-c3cnc(N4CCN(C)CC4)nc3)nc12` [Example 173] was 77%; that for `CCCCOc1nc(Cc2ccc(Cl)cc2)nc2oc(-c3cccc(C)c3)nc12` [Example 108] was 31%. Take `Fc1cccc(-c2nc3c(OCC4CC4)nc(CCc4ccc(Cl)cc4)nc3o2)c1` [Example 7]: the “% Activation (Edg-1 receptor activation in percent of the activation by 10 μM S1P)” value is recorded as 23%. Still for that read-out and setting: the value for `CCOc1nc(Cc2ccc(Cl)cc2)nc2oc(-c3cccc(OC)c3)nc12` [Example 284] was 103%. Still for that read-out and setting: the value for `CCOc1nc(Cc2ccc(Cl)cc2)nc2oc(-c3cc(C)c(OCC(O)CN(C)C)c(C)c3)nc12` (stereo not shown) [Example 264] was 55%; that for `CCCOc1nc(Cc2ccc(C)cc2)nc2oc(-c3cccc(F)c3)nc12` [Example 136] was 73%. Same read-out and setting: the value for `CCOc1nc(Cc2ccc(Cl)cc2)nc2oc(-c3cc(C)c(OCC4(CO)COC4)c(C)c3)nc12` [Example 301] was 97%; that for `CCCOc1nc(CN2CCC(F)(F)CC2)nc2oc(-c3cc(F)c(F)cc3Cl)nc12` [Example 87] was 92%; that for `CCCOc1nc(Cn2cnc(C#N)n2)nc2oc(-c3cccc(F)c3)nc12` [Example 203] was 79%. On to `CCCOc1nc(CN2CCCC(F)C2)nc2oc(-c3cccc(F)c3)nc12` (stereo not shown) [Example 69], for which the “% Activation (Edg-1 receptor activation in percent of the activation by 10 μM S1P)” value is on record as 113%. For `CCCOc1nc(CN2CCC(F)(F)CC2)nc2oc(-c3cccc(C(F)(F)F)c3)nc12` [Example 73], the “% Activation (Edg-1 receptor activation in percent of the activation by 10 μM S1P)” value amounted to 120%. Same read-out and setting: to `CCCOc1nc(C(C)c2ccccc2)nc2oc(-c3cccc(F)c3)nc12` (stereo not shown) [Example 14] belongs 97%. The same measure, in the same setting: the value for `CCCOc1nc(Cc2ccc(Cl)cc2)nc2oc(-c3cc(C)c(OCC(O)CNC(C)=O)c(C)c3)nc12` (stereo not shown) [Example 214] was 106%; that for `CCCOc1nc(CN2CCC(F)(F)CC2)nc2oc(-c3cc(F)cc(F)c3)nc12` [Example 25] was 117%; that for `CCCOc1nc(Cc2ccc(Cl)cc2)nc2oc(-c3ccc(F)c(C)c3)nc12` [Example 172] was 78%. Take `CCOc1nc(Cc2ccc(Cl)cc2)nc2oc(-c3ccc(O)c(F)c3)nc12` [Example 273]: the “% Activation (Edg-1 receptor activation in percent of the activation by 10 μM S1P)” value is recorded as 106%. Still for that read-out and setting: to `CCCOc1nc(Cn2cnc(C)n2)nc2oc(-c3cccc(F)c3)nc12` [Example 154] belongs 88%; to `CCCOc1nc(Cc2ccc(Cl)cc2)nc2oc(-c3ccc(OC)c(C)c3)nc12` [Example 176], 94%; to `CCCOc1nc(CN2CCOCC2)nc2oc(-c3cccc(F)c3)nc12` [Example 30], 114%. Take `CCCOc1nc(CN2CCSC2)nc2oc(-c3cccc(F)c3)nc12` [Example 64]: the “% Activation (Edg-1 receptor activation in percent of the activation by 10 μM S1P)” value came out at 93%. Same read-out and setting: to `CCCOc1nc(CN2CCOCC2)nc2oc(-c3cccc(C)c3)nc12` [Example 38] belongs 114%; to `CCCOc1nc(CN2CCC(F)(F)CC2)nc2oc(-c3cc(Cl)ccc3OC)nc12` [Example 76], 104%; to `CCCOc1nc(Cc2ccc(Cl)cc2)nc2oc(-c3cccc(N(C)C)c3)nc12` [Example 137], 55%. Still for that read-out and setting: the value for `Clc1ccc(Cc2nc(OCC3CC3)c3nc(-c4ccc(N5CCOCC5)nc4)oc3n2)cc1` [Example 139] was 87%; that for `CCCOc1nc(CN2CCC(=O)C(C(=O)OC)C2)nc2oc(-c3cccc(F)c3)nc12` (stereo not shown) [Example 134] was 78%.

Staying with this test, now noted: example compound at 10 μM; relative to 10 μM S1P; GTP-γ-S SPA, human Edg-1 membranes; read-out: % Activation (Edg-1 receptor activation in percent of the activation by 10 μM S1P).
Turning to `CCCOc1nc(Cc2ccc(Cl)cc2)nc2oc(-c3cc(C)c(OCC(O)CNC(=O)c4ccccc4)c(C)c3)nc12` (stereo not shown) [Example 195, N-(3-{4-[5-(4-Chloro-benzyl)-7-propoxy-oxazolo[5,4-d]pyrimidin-2-yl]-2,6-dimethyl-phenoxy}-2-hydroxy-propyl)-benzamide], the activation at 10 µM was determined as 84%.

Take `CCCOc1nc(C2(c3ccc(Cl)cc3)CC2)nc2oc(-c3cccc(C)c3)nc12` [Example 10, 5-[1-(4-Chloro-phenyl]-cyclopropyl]-7-propoxy-2-(3-methyl-phenyl)-oxazolo[5,4-d]pyrimidine]: the activation at 10 µM was found to be 66%.

Regarding `CCOc1nc(Cc2ccc(Cl)cc2)nc2oc(-c3cc(C)c(OCC(O)CSc4nnc(C(C)C)[nH]4)c(C)c3)nc12` (stereo not shown) [Example 196, 1-{4-[5-(4-Chloro-benzyl)-7-ethoxy-oxazolo[5,4-d]pyrimidin-2-yl]-2,6-dimethyl-phenoxy}-3-(5-isopropyl-4H-[1,2,4]triazol-3-ylsulfanyl)-propan-2-ol], the activation at 10 µM amounted to 83%. Still for that read-out and setting: to `CCCOc1nc(Cc2ccc(Cl)cc2)nc2oc(-c3cc(C)c(OCC(O)CO)c(C)c3)nc12` (stereo not shown) [Example 18, 3-{4-[5-(4-Chloro-benzyl)-7-propoxy-oxazolo[5,4-d]pyrimidin-2-yl]-2,6-dimethyl-phenoxy}-propane-1,2-diol] belongs 128%.
